The test system of data set [1] is A549. Description: Anticancer activity against human A549 cells assessed as inhibition in cell growth measured after 72 hrs by MTT assay. The class given is functional, cell-based. To be noted: A549, 72 h. (Tetrazolium dyes change colour on reduction, which living cells bring about.)
Data set [2] relates to SK-MEL-28. Kind of data set: Anticancer activity against human SK-MEL-28 cells assessed as inhibition in cell growth measured after 72 hrs by MTT assay. The class given is functional, cell-based. To be noted: SK-MEL-28, 72 h.
Data set [3] deals with HCT-116. Description: Anticancer activity against human HCT-116 cells assessed as inhibition in cell growth measured after 72 hrs by MTT assay. In kind it is functional, cell-based. To be noted: HCT-116, 72 h.
The subject of data set [4] is B16-F10. Kind of data set: Anticancer activity against mouse B16-F10 cells assessed as inhibition in cell growth measured after 72 hrs by MTT assay. In kind it is functional, cell-based. To be noted: B16-F10, 72 h.
A short description of data set [5]: Cytotoxicity against NRK-52E cells assessed as inhibition in cell growth measured after 72 hrs by MTT assay. The class given is toxicity, cell-based. To be noted: rat.
Data set [6] deals with MCF7. Kind of data set: Anticancer activity against human MCF7 cells assessed as inhibition in cell growth measured after 72 hrs by MTT assay. In kind it is functional, cell-based. To be noted: MCF7, 72 h.
The subject of data set [7] is SK-MEL-28. Description: Inhibition of cell migration in human SK-MEL-28 cells at 1 to 5 uM incubated for 0 to 48 hrs by wound healing assay. To be noted: dose 1-5 µM, time 0-48 hrs. The class given is functional, cell-based.
In data set [8] the test system is SK-MEL-28. Description: Inhibition of cell migration in human SK-MEL-28 cells at 1 to 5 uM incubated for 0 to 48 hrs by phase-contrast microscopy. To be noted: dose 1-5 µM, time 0-48 hrs. In kind it is functional, cell-based.
Data set [9] relates to SK-MEL-28. Kind of data set: Induction of morphological changes in human SK-MEL-28 cells assessed as cell shrinkage by ethidium bromide/acridine orange staining based analysis. The class given is functional. To be noted: dose 1-5 µM.
The subject of data set [10] is SK-MEL-28. Description: Induction of morphological changes in human SK-MEL-28 cells assessed as nuclear shrinkage at 1 to 5 uM measured after 48 hrs DAPI staining based analysis. The class given is functional, cell-based. To be noted: dose 1-5 µM.
In data set [11] the test system is SK-MEL-28. Description: Induction of ROS generation in human SK-MEL-28 cells by DCFDA staining based analysis. To be noted: dose 1-5 µM. In kind it is functional, cell-based.
A short description of data set [12]: Selectivity index, ratio of IC50 for NRK-52E cells to ratio of IC50 for human HCT-116 cells. The class given is toxicity. To be noted: rat (NRK-52E), NRK-52E cells versus HCT-116 cells, read-out: Selectivity Index.
Data set [13] relates to SK-MEL-28. Kind of data set: Induction of morphological changes in human SK-MEL-28 cells assessed as chromatin condensation at 1 to 5 uM measured after 48 hrs DAPI staining based analysis. To be noted: dose 1-5 µM. In kind it is functional, cell-based.
Data set [14] relates to SK-MEL-28. Description: Induction of morphological changes in human SK-MEL-28 cells assessed as appearance of nuclei at 1 to 5 uM measured after 48 hrs DAPI staining based analysis. In kind it is functional, cell-based. To be noted: dose 1-5 µM.
Data set [15] concerns SK-MEL-28. Description: Induction of morphological changes in human SK-MEL-28 cells assessed as bright fragmented nuclei at 1 to 5 uM measured after 48 hrs DAPI staining based analysis. The class given is functional, cell-based. To be noted: dose 1-5 µM.
Data set [16] is described as follows: Selectivity index, ratio of IC50 for NRK-52E cells to ratio of IC50 for human A549 cells. The class given is toxicity. To be noted: rat (NRK-52E), NRK-52E cells versus A549 cells, read-out: Selectivity Index.
In data set [17] the test system is SK-MEL-28. Description: Inhibition of colony formation in human SK-MEL-28 cells incubated for 48 hrs by crystal violet staining based colony formation assay. The class given is functional, cell-based. To be noted: dose 1-5 µM.
For data set [18], the system named is SK-MEL-28. Kind of data set: Induction of morphological changes in human SK-MEL-28 cells assessed as production of apoptotic bodies by ethidium bromide/acridine orange staining based analysis. The class given is functional, cell-based. To be noted: dose 1-5 µM.
The subject of data set [19] is SK-MEL-28. Kind of data set: Induction of morphological changes in human SK-MEL-28 cells assessed as chromatin condensation by ethidium bromide/acridine orange staining based analysis. In kind it is functional, cell-based. To be noted: dose 1-5 µM.
Data set [20] is described as follows: Selectivity index, ratio of IC50 for NRK-52E cells to ratio of IC50 for mouse B16-F10 cells. The class given is toxicity. To be noted: NRK-52E cells versus B16-F10 cells, read-out: Selectivity Index.
Data set [21] in a line: Selectivity index, ratio of IC50 for NRK-52E cells to ratio of IC50 for human SK-MEL-28 cells.
Data set [22] deals with SK-MEL-28. Kind of data set: Induction of morphological changes in human SK-MEL-28 cells assessed as membrane blebbing by ethidium bromide/acridine orange staining based analysis. In kind it is functional, cell-based. To be noted: dose 1-5 µM.
For data set [23], the system named is SK-MEL-28. Kind of data set: Induction of morphological changes in human SK-MEL-28 cells assessed as bright pyknotic nuclei at 1 to 5 uM measured after 48 hrs DAPI staining based analysis. The class given is functional, cell-based. To be noted: dose 1-5 µM.
Data set [24] in a line: Selectivity index, ratio of IC50 for NRK-52E cells to ratio of IC50 for human MCF7 cells. To be noted: rat (NRK-52E), NRK-52E cells versus MCF7 cells, read-out: Selectivity Index. In kind it is toxicity.

The source made the active and inactive calls. The calls are words filed in the database; no cut-off is given here. Where only a bound is given, the exact number is not on record here.

14 compounds from ChEMBL document CHEMBL5390218, “Benzimidazole derivatives as tubulin polymerization inhibitors: Design, synthesis and in vitro cytotoxicity studies” (Bioorg Med Chem Lett, 2023) can be followed below.

As a reminder, the IC50 is the concentration that inhibits the measured activity by half.

With `COc1cc(-c2nc3cc(F)ccc3[nH]2)ccc1OCC(=O)N1CCc2ccccc2C1`, the half-maximal inhibitory concentration (IC50) in [1] was over 20 µM; in [2], 8.59 µM; in data set [3], 10.1 µM; in data set [4], over 20 µM; in [6], 14.7 µM. Also, in data set [5], the half-maximal inhibitory concentration (IC50) at 72 h was over 100 µM.

In the case of `COc1ccc2[nH]c(-c3ccc(OCC(=O)N4CCOCC4)c(OC)c3)nc2c1`, the concentration for half-maximal inhibition (IC50) in data set [1], in [2], in data set [3], in [4] and in data set [6] was over 20 µM in each case. The 50% inhibitory concentration (IC50) at 72 h in data set [5] is over 100 µM.

Take `COc1cc(-c2nc3cc(F)ccc3[nH]2)ccc1OCC(=O)N1CCOCC1`: the 50% inhibitory concentration (IC50) in data set [1], in [2], in [3], in [4] and in [6] was over 20 µM in each case. Also, in data set [5], the half-inhibitory concentration (IC50) at 72 h is over 100 µM.

For `COc1ccc2[nH]c(-c3ccc(OCC(=O)N4CCc5ccccc5C4)c(OC)c3)nc2c1`, the 50% inhibitory concentration (IC50) in [1] came to 8.12 µM; in data set [2], 2.95 µM; in data set [3], 7.9 µM; in [4], 4.96 µM; in [6], 11 µM. In addition, the IC50 at 72 h in [5] was found to be 20.5 µM.

Take `COc1cc(-c2nc3ccccc3[nH]2)ccc1OCC(=O)N1CCN(c2ncccn2)CC1`: the half-maximal inhibitory concentration (IC50) in data set [1] is over 20 µM; in [2], 12.2 µM; in [3] it was over 20 µM; in data set [4] it was over 20 µM; in data set [6], over 20 µM. Besides, the IC50 at 72 h in data set [5] is over 100 µM.

As to `COc1cc(-c2nc3cc(C)ccc3[nH]2)ccc1OCC(=O)N1CCN(c2ncccn2)CC1`, the concentration for half-maximal inhibition (IC50) is 7.93 µM in data set [1]; 5.42 µM in data set [2]; 4.7 µM in [3]; 8.53 µM in data set [4]; 11.8 µM in data set [6]. In data set [5], the half-inhibitory concentration (IC50) at 72 h was over 100 µM.

`COc1cc(-c2nc3cc(C)ccc3[nH]2)ccc1OCC(=O)N1CCCC1`: the IC50 in data set [1], in [2], in data set [3], in data set [4] and in [6] was over 20 µM throughout. For the same compound, in data set [5], the half-inhibitory concentration (IC50) at 72 h is over 100 µM.

Regarding `COc1cc(-c2nc3ccccc3[nH]2)ccc1OCC(=O)N1CCc2ccccc2C1`, the 50% inhibitory concentration (IC50) in data set [1], in data set [2], in [3], in data set [4] and in data set [6] was over 20 µM each time. Further, the IC50 at 72 h in data set [5] was over 100 µM.

`COc1cc(-c2nc3cc(C)ccc3[nH]2)ccc1OCC(=O)N1CCc2ccccc2C1`: the inhibition entry in data set [7] and in [8] was “Active” throughout. The IC50 in data set [1] was determined as 5.5 µM; in data set [2] it was 2.55 µM; in [3] it was 6.04 µM; in data set [4] it was 4.76 µM; in [6] it was 5.9 µM. For the same compound, the Activity entry in data set [9], in data set [11], in data set [18], in [19] and in data set [22] was “Dose-Dependent Effect” each time. In addition, the result in [10], in [13], in [14], in data set [15] and in [23] was Active. Besides, the selectivity ratio in data set [12] came to 8.6; in data set [16], 9.4; in data set [20], 10.9; in data set [24] it was 8.8. Further, in data set [17], the inhibition result was “Dose-Dependent Effect”. Moreover, in data set [21], the “Selectivity Index” value came to 20.3. For the same compound, in [5], the half-maximal inhibitory concentration (IC50) at 72 h amounted to 51.9 µM.

For the compound `COc1cc(-c2nc3cc(F)ccc3[nH]2)ccc1OCC(=O)N1CCCC1`, the concentration for half-maximal inhibition (IC50) in data set [1], in [2], in [3], in data set [4] and in data set [6] was over 20 µM throughout. Further, in [5], the IC50 at 72 h was over 100 µM.

As for `COc1cc(-c2nc3cc(F)ccc3[nH]2)ccc1OCC(=O)N1CCCCC1`, the concentration for half-maximal inhibition (IC50) in data set [1], in data set [2], in data set [3], in [4] and in [6] was over 20 µM in each case. For the same compound, in [5], the IC50 at 72 h was over 100 µM.

On to `COc1ccc2[nH]c(-c3ccc(OCC(=O)N4CCCC4)c(OC)c3)nc2c1`, for which the IC50 in [1], in data set [2], in [3], in [4] and in data set [6] was over 20 µM each time. In addition, the IC50 at 72 h in data set [5] is over 100 µM.

`COc1ccc2[nH]c(-c3ccc(OCC(=O)N4CCN(C(=O)OC(C)(C)C)CC4)c(OC)c3)nc2c1`: the half-maximal inhibitory concentration (IC50) in [1], in [2], in data set [3], in data set [4] and in data set [6] was over 20 µM each time. The IC50 at 72 h in data set [5] is over 100 µM.

On to `COc1cc(-c2nc3cc(C)ccc3[nH]2)ccc1OCC(=O)N1CCOCC1`, for which the IC50 in [1], in data set [2], in data set [3], in data set [4] and in [6] was over 20 µM throughout. In [5], the IC50 at 72 h was over 100 µM.
